This is an account of results in patent publication US8877938B2, “Compounds containing S-N-valeryl-N-{[2′-(1H-tetrazole-5-yl)-biphenyl-4-yl]-methyl}-valine and (2R,4S)-5-biphenyl-4-yl-4-(3-carboxy-propionylamino)-2-methyl-pentanoic acid ethyl ester moieties and cations” (Novartis Pharmaceuticals Corporation, priority 2005, dated 2014).

Read-outs that look alike come from different tables or passages of the source.

Assay [1] deals with double-transgenic rats (dTGRs) that overexpress both human renin and its substrate, human angiotensinogen. On the procedure: (§1) Representative studies are carried out with trisodium [3-((1S,3R)-1-biphenyl-4-ylmethyl-3-ethoxycarbonyl-1-butylcarbamoyl)propionate-(S)-3′-methyl-2′- pentanoyl{2″-(tetrazol-5-ylate)biphenyl-4′-ylmethyl}amino)butyrate] hemipentahydrate, e.g. applying the following methodology: • The antihypertensive and neutral endopeptidase 24.11 (NEP)-inhibitory activities of trisodium [3-((1S,3R)-1-biphenyl-4-ylmethyl-3-ethoxycarbonyl-1-butylcarbamoyl)propionate-(S)-3′-methyl-2′-(pentanoyl{2″-tetrazol-5-ylate)biphenyl-4′-ylmethyl}amino)butyrate] hemipentahydrate is assessed in conscious rats. The blood pressure-lowering effect is evaluated in double-transgenic rats (dTGRs) that overexpress both human renin and its substrate, human angiotensinogen (Bohlender, et al, High human renin hypertension in transgenic rats. Hypertension; 29(1 Pt 2):428-34, 1997). […] The NEP-inhibitory effect of trisodium [3-((1 S,3R)-1-biphenyl-4-ylmethyl-3-ethoxycarbonyl-1-butylcarbamoyl)propionate-(S)-3′-methyl-2′-(pentanoyl{2″-(tetrazol-5-ylate)biphenyl-4′-ylmethyl}amino)butyrate] hemipentahydrate is determined in conscious Sprague-Dawley rats infused with exogenous atrial natriuretic peptide (ANP). Potentiation of plasma ANP levels is used as an index of NEP inhibition in vivo. In both models, trisodium [3-((1S,3R)-1-biphenyl-4-ylmethyl-3-ethoxycarbonyl-1-butylcarbamoyl)propionate-(S)-3′-methyl-2′-(pentanoyl{2″-(tetrazol-5-ylate)biphenyl-4′-ylmethyl}amino)butyrate] hemipentahydrate is administered orally as a powder in gelatin mini capsules. […] Antihypertensive Effect In Vivo
The dTGRs are instrumented with radiotelemetry transmitters for continuous measurement of arterial blood pressure and heart rate. Animals are randomly assigned to vehicle (empty capsule) or treatment (at 2, 6, 20 or 60 mg/kg, p.o.) groups.

Assay [2] has as its target neutral endopeptidase 24.11 (NEP) (Rattus norvegicus, UniProt P07861). The settings on record: for NEP inhibition in vivo, as reflected by potentiation of plasma ANPir: oral administration, conscious Sprague-Dawley rats infused with exogenous ANP. On the procedure:
as §1
Rat ANP(1-28) is infused intravenously at a rate of 450 ng/kg/min in conscious, chronically cannulated, male Sprague-Dawley rats. After one hour of infusion, rats are randomly assigned to one of six groups: untreated control, vehicle (empty capsule) control, or one of four doses of drug (2, 6, 20, or 60 mg/kg, p.o.). ANP infusion is continued for an additional eight hours. Blood samples are collected for measuring plasma ANPir by a commercial enzyme immunoassay kit at −60 min (i.e., before initiating ANP infusion), −30 min (after 30 min of ANP infusion), 0 min (“baseline”; after 60 min of ANP infusion but before dosing with drug or its vehicle), and at 0.25, 0.5,1, 2, 3, 4, 5, 6, 7, and 8 hr post-dosing.

[3] abbreviates: 2, 6, 20 or 60 mg/kg, p.o., rat ANP(1-28) infused i.v. at 450 ng/kg/min.

neutral endopeptidase 24.11 (NEP), sequence (P07861 whole entry, the tested form may be a part): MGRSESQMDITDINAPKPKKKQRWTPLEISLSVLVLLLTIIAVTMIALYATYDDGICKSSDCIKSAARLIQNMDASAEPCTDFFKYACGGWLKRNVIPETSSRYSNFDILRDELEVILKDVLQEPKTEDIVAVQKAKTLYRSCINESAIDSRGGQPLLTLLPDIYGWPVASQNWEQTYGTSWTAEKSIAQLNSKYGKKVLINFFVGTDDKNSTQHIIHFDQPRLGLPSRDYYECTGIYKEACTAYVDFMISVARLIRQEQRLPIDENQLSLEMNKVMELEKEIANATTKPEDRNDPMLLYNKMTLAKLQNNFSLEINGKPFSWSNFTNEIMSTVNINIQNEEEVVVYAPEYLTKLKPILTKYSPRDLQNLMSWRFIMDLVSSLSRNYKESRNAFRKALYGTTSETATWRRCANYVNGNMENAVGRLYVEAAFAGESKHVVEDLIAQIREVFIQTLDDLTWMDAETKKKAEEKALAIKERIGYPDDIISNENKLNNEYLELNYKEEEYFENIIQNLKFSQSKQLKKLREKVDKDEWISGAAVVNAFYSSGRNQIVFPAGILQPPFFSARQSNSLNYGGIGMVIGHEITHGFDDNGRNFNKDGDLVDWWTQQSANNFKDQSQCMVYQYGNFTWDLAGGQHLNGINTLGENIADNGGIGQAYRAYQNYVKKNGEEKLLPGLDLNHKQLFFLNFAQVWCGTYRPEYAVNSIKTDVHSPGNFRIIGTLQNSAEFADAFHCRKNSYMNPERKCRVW

With “trisodium [3-((1S,3R)-1-biphenyl-4-ylmethyl-3-ethoxycarbonyl-1-butylcarbamoyl)propionate-(S)-3′-methyl-2′-(pentanoyl{2″-(tetrazol-5-ylate)biphenyl-4′-ylmethyl}amino)butyrate] hemipentahydrate”, the “mean arterial pressure (MAP)” value in assay [1] (2, 6, 20 or 60 mg/kg, p.o., baseline 24-hr MAP approximately 170-180 mmHg) is listed as “dose-dependently reduces MAP”. Moreover, the antihypertensive effect result in assay [1] (oral administration, conscious dTGRs, a rat model of fulminant hypertension) is “dose-dependent and long-lasting antihypertensive effect”. Further, in assay [1] (three highest doses (of 2, 6, 20, 60 mg/kg, p.o.)), the “MAP, difference from vehicle controls” value was “significantly different from the vehicle controls”. Moreover, the “plasma ANPir” value in assay [2] (setting [3]) was “dose-dependently augments ANPir”. Moreover, the “time to augmentation of plasma ANPir after dosing” value in assay [2] (setting [3]) is given as at most 15 min. In addition, the “NEP inhibition in vivo, as reflected by potentiation of plasma ANPir” value in assay [2] was “rapidly and dose-dependently inhibits NEP with a long duration of action”; in assay [2] (listed as LCZ696) it was “rapidly and dose-dependently inhibited NEP with a long duration of action”.
